# Where “and” joins values, the source holds several entries; their conditions need not be identical. Equal entries are not always repeated. Where two headings read alike, the source gives them in different places.
# Assays:
# Saccharomyces cerevisiae [1] = assay: MIC, two-fold (broth) serial dilution, S. cerevisiae; format: cell-based
# Experimental: (§1) Both qualitative and quantitative screens were performed. Qualitative screening was accomplished using the agar well diffusion assay technque while quantitative screening was accomplished by the two-fold (broth) serial dilution method to determine the minimum inhibitory concentration (MIC). Innoculation was accomplished with one loop-full of a 1:10 dilution of the 24-hour-old broth culture, (fungal cultures and M.smegmatis more often required 48 to 72 hours of incubation) of the test organisms in sterile water. Streptomycin sulfate was used as a positive control for antibacterial activity while amphitericin B was used as an antifungal positive control. Organisms utilized in the screens included gram-positive, gram-negative, and acid-fast bacteria as well as different types of fungi. […] An intermediate type activity is seen where R is hydrogen. However, where R is lengthened up to C15 a decrease in activity was noted. Total saturation of the two double bonds in the compounds having a methyl side chain lead, in most cases, to an increase in both antifungal and antibacterial activity.
# Candida albicans [2] = assay: MIC, two-fold (broth) serial dilution, C. albicans; format: cell-based
# Experimental: as §1
# Mycobacterium smegmatis [3] = assay: MIC, two-fold (broth) serial dilution, M. smegmatis; format: cell-based
# Experimental: as §1
# [4] = tested on: Trichophyton mentagrophytes; assay: MIC, two-fold (broth) serial dilution, T. mentagrophytes; format: cell-based
# Experimental: as §1
# Escherichia coli = assay: agar well diffusion assay, E. coli; format: cell-based; details: from edge of agar well
# Experimental: as §1
# Staphylococcus aureus [5] = assay: agar well diffusion assay, S. aureus; format: cell-based; details: from edge of agar well
# Experimental: as §1
# Bacillus subtilis [6] = assay: MIC, two-fold (broth) serial dilution, B. subtilis; format: cell-based
# Experimental: as §1
# Staphylococcus aureus [7] = assay: MIC, two-fold (broth) serial dilution, S. aureus; format: cell-based
# Experimental: as §1
# [8] = tested on: carrageenan-induced rat paw edema; assay: carrageenan-induced rat paw edema test, intraperitoneal dosing; format: in vivo; details: Table 5, * P = 0.01
# Experimental: Two methods were used to assess the antiinflammatory activity of the compounds of the invention: the carrageenan-induced rat paw edema test and, the erythrocyte membrane stabilization assay.
# In the Rat Paw Edema Test, the rats utilized were divided into test groups of six to eight animals, weighed and marked so that individual rats could be identified; one hour before testing all rats were given a 700 mg/kg intraperitoneal injection of ethyl urethane in distilled water to render them tractable during testing. A circle was drawn, with a felt-tipped marker, around the hind leg of each rat just above the ankle, and each rat was dosed with a test or control compound by intraperitoneal injection. Negative control groups received the vehicle; while positive control groups received a dose of phenylbutazone (PBZ) as shown in Table II. Test compounds were given at doses of 60, 120, 240 and 480 mg/kg. The positive controls were given at 120 mg/kg and 60 mg/kg. Phenylbutazone was prepared for injection by suspending it in normal saline using Tween 60. The rats were then held in group cages for 30 minutes. The volume of the left hind paw was measured using a mercury displacement pleysmograph. The paw is dipped into the mercury until the mercury touches the line above the ankle. Mercury is then withdrawn until the mercury returns to its original level. The amount of mercury removed is measured in milliliters (ml). The mercury can be measured accurately to 0.01 ml. This left hind paw was then injected with 0.1 ml of a 5% w/v solution of viscous carageenan in normal saline. The injection was given between the metatarsal bones using a 27 gauge needle, and the rats then held in group cages for 3 hours. The volume of the left hind paws was measured again in the pleysmograph. The results were computed in the following manner:
# a. A mean is taken for both the pre-injection and post-injection paw volume of each test group.
# b. The mean difference in volume (MDV) for each test group is computed by subtracting the pre-injection means from the post-injection mean.
# c. The percent of control is computed for each test [formula] The percent of control is used to compare the efficacy of the various drug treatments.
# d. The percent increase in paw volume is calculated for each group as: [formula] The percent increase is used to compare the amount of edma observed in one experiment to the amount of edma observed in other experiments.
# The data from the rat paw test were further analyzed using a one-way analysis of varience (ANOVA) and Duncan's New Multiple Range Test. The pre-injection score of each animal was subtracted from his post-injection score and an analysis of the different scores were conducted.
# The procedure described above was followed. […] The vehicle control used was Tween 60, Arlacel and distilled water prepared without CBC(II).
# [9] = tested on: Trichophyton mentagrophytes; assay: agar well diffusion assay, T. mentagrophytes; format: cell-based; details: one entry across 48 hr and 72 hr
# Experimental: as §1
# Candida albicans [10] = assay: agar well diffusion assay, C. albicans; format: cell-based; details: from edge of agar well
# Experimental: as §1
# Saccharomyces cerevisiae [11] = assay: agar well diffusion assay, S. cerevisiae; format: cell-based; details: from edge of agar well
# Experimental: as §1
# Bacillus subtilis [12] = assay: agar well diffusion assay, B. subtilis; format: cell-based; details: from edge of agar well
# Experimental: as §1
# Pseudomonas aeruginosa = assay: agar well diffusion assay, Ps. aeruginosa; format: cell-based; details: from edge of agar well
# Experimental: as §1
# Aspergillus niger = assay: agar well diffusion assay, A. niger; format: cell-based; details: from edge of agar well
# Experimental: as §1
# Mycobacterium smegmatis [13] = assay: agar well diffusion assay, M. smegmatis; format: cell-based; details: from edge of agar well
# Experimental: as §1
# [14] = tested on: erythrocyte (heat-induced hemolysis); assay: erythrocyte membrane stabilization assay (heat-induced erythrocyte hemolysis); format: cell-based; details: Erythrocyte; for inhibition at 250 µM: 2.5 × 10^-4 M
# Experimental: The published procedure (Proc. Soc. Exp. Biol. Med. 1967; 125; 837-842 Brow et al) for in vitro assay for antiinflammatory agents based on stabilization of erythrocytes was used. All compounds were prepared for administration by dissolving in physiologic saline or suspending in 2% ethanol in saline and the pH adjusted to 7.4 The concentrations tested in one series are given in Table 8. Aspirin (ASA) and phenylbutazone were used as positive controls for comparison of activity. Tests using this procedure were successfully and repeatedly using either 40% or 20% RBC suspensions.
# [15] = 24 hr, listed as Streptomycin-SO4
# [16] = 48 hr, listed as Streptomycin-SO4
compound,measurement,setting,value
2-methyl-2(4'-methyl-pent-3'-enyl)-5-hydroxy-7-pent-dec-8'-enyl chromene [CBC (VIII)],MIC,Saccharomyces cerevisiae [1]; 48 hr,100 mg/L
same,MIC,Saccharomyces cerevisiae [1]; 72 hr,100 mg/L
same,MIC,Candida albicans [2]; 48 hr,50 mg/L
same,MIC,Candida albicans [2]; 72 hr,100 mg/L
same,MIC,Mycobacterium smegmatis [3]; 24 hr,12.5 mg/L and 25 mg/L
same,MIC,[4]; 48 hr,25 mg/L
same,MIC,[4]; 72 hr,50 mg/L
2-methyl-2(4'-methyl-pentyl)-5-hydroxy-7-methyl chroman [CBC (V)],MIC,Saccharomyces cerevisiae [1]; 48 hr,6.25 mg/L and 12.5 mg/L
same,MIC,Saccharomyces cerevisiae [1]; 72 hr,12.5 mg/L
same,width of inhibition zone,Escherichia coli; 24 hr,5. mm
same,width of inhibition zone,Escherichia coli; 48 hr,5. mm
same,width of inhibition zone,Staphylococcus aureus [5]; 24 hr,25. mm
same,width of inhibition zone,Staphylococcus aureus [5]; 48 hr,25. mm
same,MIC,Bacillus subtilis [6]; 24 hr,3.12 mg/L and 1.56 mg/L
same,MIC,Bacillus subtilis [6]; 48 hr,3.12 mg/L and 1.56 mg/L
same,MIC,Staphylococcus aureus [7]; 48 hr,3.12 mg/L
same,inhibition of carrageenan-induced rat paw edema,[8]; 60 mg/kg i.p.,53%
same,inhibition of carrageenan-induced rat paw edema,[8]; 120 mg/kg i.p.,63%
same,inhibition of carrageenan-induced rat paw edema,[8]; 240 mg/kg i.p.,92%
same,MIC,Mycobacterium smegmatis [3]; 24 hr,3.12 mg/L
same,agar well diffusion result in words,[9],No growth
same,width of inhibition zone,Candida albicans [10]; 48 hr,3.0 mm
same,width of inhibition zone,Candida albicans [10]; 72 hr,3.0 mm
same,width of inhibition zone,Saccharomyces cerevisiae [11]; 48 hr,22. mm
same,width of inhibition zone,Saccharomyces cerevisiae [11]; 72 hr,22. mm
same,width of inhibition zone,Bacillus subtilis [12]; 24 hr,16.0 mm
same,width of inhibition zone,Bacillus subtilis [12]; 48 hr,9.0 mm
same,width of inhibition zone,Pseudomonas aeruginosa; 24 hr,4. mm
same,width of inhibition zone,Pseudomonas aeruginosa; 48 hr,3. mm
same,width of inhibition zone,Aspergillus niger; 48 hr,3. mm
same,width of inhibition zone,Aspergillus niger; 72 hr,3. mm
same,width of inhibition zone,Mycobacterium smegmatis [13]; 24 hr,25. mm
same,width of inhibition zone,Mycobacterium smegmatis [13]; 48 hr,25. mm
"CC(=O)Oc1ccccc1C(=O)O [Aspirin, Acetylsalicylic Acid, reference compound]",inhibition at 250 µM,"[14]; Table 8, read-out: inhibition of heat-induced erythrocyte hemolysis",21%
same,inhibition at 250 µM,"[14]; Table 9 Test 1 (20% RBC), read-out: percent inhibition of heat-induced erythrocyte hemolysis",21%
same,inhibition at 500 µM,"[14]; Table 9 Test 3 (20% RBC), 5.0 × 10^-4 M, read-out: percent inhibition of heat-induced erythrocyte hemolysis",40%
same,inhibition at 500 µM,"[14]; 5×10^-4 M, read-out: inhibition of heat-induced red cell hemolysis",40%
"CCCCCc1cc(O)c2c(c1)OC(C)(CCCC(C)C)CC2 (centres unmarked) [CBC (X), 2-methyl-2(4'-methyl-pentyl)-5-hydroxy-7-pentyl chroman]",width of inhibition zone,Escherichia coli; 24 hr,5. mm
same,width of inhibition zone,Escherichia coli; 48 hr,5. mm
same,width of inhibition zone,Staphylococcus aureus [5]; 24 hr,13. mm
same,width of inhibition zone,Staphylococcus aureus [5]; 48 hr,13. mm
same,agar well diffusion result in words,[9],No growth
same,width of inhibition zone,Candida albicans [10]; 48 hr,2. mm
same,width of inhibition zone,Candida albicans [10]; 72 hr,3. mm
same,width of inhibition zone,Saccharomyces cerevisiae [11]; 48 hr,7. mm
same,width of inhibition zone,Saccharomyces cerevisiae [11]; 72 hr,7. mm
same,width of inhibition zone,Bacillus subtilis [12]; 24 hr,4.0 mm
same,width of inhibition zone,Bacillus subtilis [12]; 48 hr,4.0 mm
same,width of inhibition zone,Pseudomonas aeruginosa; 24 hr,1. mm
same,width of inhibition zone,Pseudomonas aeruginosa; 48 hr,1. mm
same,width of inhibition zone,Aspergillus niger; 48 hr,1. mm
same,width of inhibition zone,Aspergillus niger; 72 hr,1. mm
same,width of inhibition zone,Mycobacterium smegmatis [13]; 24 hr,7. mm
same,width of inhibition zone,Mycobacterium smegmatis [13]; 48 hr,7. mm
"CCCCCc1cc(O)cc2c1C=CC(C)(CCC=C(C)C)O2 (centres unmarked) [Iso CBC (IX), 2-methyl-2(4'-methyl-pent-3'-enyl)-5-pentyl-7-hydroxy chromene]",inhibition at 100 µM,"[14]; read-out: inhibition of heat-induced erythrocyte hemolysis, Table 8, 1 × 10^-4 M",75%
same,MIC,"Candida albicans [2]; Candida albicans, 48 h, read-out: MIC",50 mg/L
same,MIC,"Candida albicans [2]; Candida albicans, 72 h, read-out: MIC",100 mg/L
same,MIC,"Bacillus subtilis [6]; Bacillus subtilis, 24 h, read-out: MIC",0.78 mg/L
same,MIC,"Bacillus subtilis [6]; Bacillus subtilis, 48 h, read-out: MIC",3.12 mg/L
same,MIC,"Mycobacterium smegmatis [3]; Mycolicibacterium smegmatis, 24 h, read-out: MIC",25 mg/L
same,MIC,"Mycobacterium smegmatis [3]; Mycolicibacterium smegmatis, 48 h, read-out: MIC",25 mg/L
"[H]/N=C(/N)N[C@H]1[C@H](O)[C@@H](O)[C@H](O[C@@H]2O[C@@H](C)[C@](O)(C=O)[C@H]2O[C@@H]2O[C@@H](CO)[C@H](O)[C@@H](O)[C@@H]2NC)[C@@H](N/C(N)=N\[H])[C@@H]1O [Streptomycin SO4, reference compound]",width of inhibition zone,Escherichia coli; 24 hr,2. mm
same,width of inhibition zone,Escherichia coli; [15],5. mm
same,width of inhibition zone,Escherichia coli; 48 hr,2. mm
same,width of inhibition zone,Escherichia coli; [16],5. mm
same,width of inhibition zone,Staphylococcus aureus [5]; 24 hr,9. mm
same,width of inhibition zone,Staphylococcus aureus [5]; [15],10. mm
same,width of inhibition zone,Staphylococcus aureus [5]; 48 hr,9. mm
same,width of inhibition zone,Staphylococcus aureus [5]; [16],10. mm
same,MIC,Bacillus subtilis [6]; 24 hr,3.12 mg/L
same,MIC,Bacillus subtilis [6]; 48 hr,25 mg/L
same,MIC,Staphylococcus aureus [7]; 24 hr,3.12 mg/L
same,MIC,Staphylococcus aureus [7]; 48 hr,12.5 mg/L and 6.25 mg/L
same,MIC,Staphylococcus aureus [7]; [16],12.5 mg/L and 25.0 mg/L and 25 mg/L
same,MIC,Mycobacterium smegmatis [3]; 24 hr,1.56 mg/L
same,MIC,Mycobacterium smegmatis [3]; [15],1.56 mg/L and 0.78 mg/L
same,MIC,Mycobacterium smegmatis [3]; 48 hr,1.56 mg/L
same,MIC,Mycobacterium smegmatis [3]; [16],1.56 mg/L and 0.78 mg/L
same,width of inhibition zone,Bacillus subtilis [12]; 24 hr,7. mm
same,width of inhibition zone,Bacillus subtilis [12]; [15],11. mm
same,width of inhibition zone,Bacillus subtilis [12]; 48 hr,8. mm
same,width of inhibition zone,Bacillus subtilis [12]; [16],10. mm
same,width of inhibition zone,Pseudomonas aeruginosa; 24 hr,3. mm
same,width of inhibition zone,Pseudomonas aeruginosa; [15],7. mm
same,width of inhibition zone,Pseudomonas aeruginosa; 48 hr,3. mm
same,width of inhibition zone,Pseudomonas aeruginosa; [16],6. mm
same,width of inhibition zone,Mycobacterium smegmatis [13]; 24 hr,20. mm
same,width of inhibition zone,Mycobacterium smegmatis [13]; 48 hr,22. mm
"Cc1ccc(C(=O)c2ccc(CC(=O)O)n2C)cc1 [Tolmetin, reference compound]",inhibition at 200 µM,"[14]; Table 9 Test 1 (20% RBC), 2.0 × 10^-4 M, read-out: percent inhibition of heat-induced erythrocyte hemolysis",27%
